According to patent US8420574B2, “Plant growth enhancement with combinations of PESA and herbicides” (Valent BioSciences Corporation, priority 2009, dated 2013):
Counter-ions that a name gives are not always drawn.

Key:
Assay type in all cases: in vivo
[1] = system: rice cv. Cheniere; experiment: Pouch assay, PESA salt and herbicide added to the pouch solution; root and shoot length
Method: Alternatively, PESA salt and herbicides may be added separately to the sterile water in the growth pouch.
(§1) Seeds were placed in germination pouches consisting of germination paper hydrated with sterile water that was an insert in a gas-permeable 16×14 cm plastic pouch (CYG Pouch; Mega International, St. Paul, Minn.). In these examples, in pouch solution evaluation, PESA sodium salt or other active ingredients were added to the sterile water in the pouch. The pouches were arranged in a completely randomized block design in growth racks and placed in 19-liter polycarbonate food storage containers (Rubbermaid Commercial Products, Winchester, Va.). The sealed containers were held in an upright growth cabinet maintained at 25 C with a 12 hour light: 12 hour dark photoperiod. After 6 days, the containers were removed from the growth cabinet, and the lengths of the roots and shoot were measured.

[2] = system: rice cv. Cheniere; experiment: Emergence of seed-treated rice seeded onto soil previously treated with herbicide; conditions: for Percent Emergence at 9 days after planting: untreated 90
Excerpt: Seed was sieved with a screen of mesh size appropriate to remove broken seeds and small trash. Cracked or otherwise damaged seeds were removed. The seed was well mixed, and 50 g samples were weighed into small plastic trays. […] A fungicide (Maxim XL; Syngenta Agricultural Products, Greensboro, N.C.), a polymeric binder (CF-Clear; Becker-Underwood, Ames, Iowa), and a colorant (Color Coat Red; Becker-Underwood, Ames, Iowa) were also included in the slurry at label rates. A small aliquot of this slurry was applied to the seed using the Hege 11 coater (Wintersteiger, Salt Lake City, Utah) with a six-inch bowl at a slurry rate of 30 ounces per 100 lbs of seed. The slurry was deposited drop-wise on the spinning disk atomizer using a syringe.
Rice cv. […] It was then seeded onto soil which was previously sprayed with the pendimethalin herbicide Prowl H2O® (BASF Agricultural Products, Research Triangle Park, N.C.).
After seed treatment, rice was seeded into soil previously treated with the dithiopyr herbicide Dimension®.
Rice seed treated with PESA was tested for its ability to protect rice from the herbicide Roundup WeatherMax® (glyphosate). After seed treatment, rice was seeded into soil previously treated with the Roundup WeatherMax®.

[3] = system: rice cv. Cheniere; experiment: Pouch assay with PESA salt seed treatment; root length; conditions: for Root Length: untreated 9.8
Method: Procedure for Treating Samples of Seed in the Laboratory
Seed was sieved with a screen of mesh size appropriate to remove broken seeds and small trash. Cracked or otherwise damaged seeds were removed. The seed was well mixed, and 50 g samples were weighed into small plastic trays. Seed treatment slurries were made by adding measured amounts of PESA or its salts and other AIs to sufficient water to bring them up to a standard volume, typically 2 ml. A fungicide (Maxim XL; Syngenta Agricultural Products, Greensboro, N.C.), a polymeric binder (CF-Clear; Becker-Underwood, Ames, Iowa), and a colorant (Color Coat Red; Becker-Underwood, Ames, Iowa) were also included in the slurry at label rates. A small aliquot of this slurry was applied to the seed using the Hege 11 coater (Wintersteiger, Salt Lake City, Utah) with a six-inch bowl at a slurry rate of 30 ounces per 100 lbs of seed. The slurry was deposited drop-wise on the spinning disk atomizer using a syringe.
After treatment, each seed sample was placed in plastic trays and dried at a room temperature for 20 to 60 minutes. The samples were then placed in small plastic bags. Samples were spot-checked using a water activity meter to make sure the water activity is below 0.7.
as §1
Rice cv. Chemere was treated with PESA sodium salt prior to growing in the pouch. The treated seeds were then grown in the pouch in a dose-dependent series of trifluralin concentrations (Table 2). […] This confirms that seed treatment with the PESA salt protects or safens rice from the negative effects of trifluralin herbicide on root growth.

[4] = system: cotton; experiment: Pouch assay; root and shoot length of cotton; conditions: for Shoot Length / Root Length: 30 ppm PESA salt; for Shoot Length: untreated 4.7; for Root Length: untreated 7.7
Method: as §1

O=C(O)CCC(=O)NCCc1ccccc1 [PESA salt, N-(2-phenylethyl)succinamic acid]
Shoot Length ([1]; 0 ppm pendimethalin, treatment 30 ppm PESA salt, 10 ppm GA3 or both, untreated 3.9): 3.8 cm
Root Length ([1]; 0 ppm pendimethalin, treatment 30 ppm PESA salt, 10 ppm GA3 or both, untreated 9.7): 11.2 cm
Shoot Length ([1]; 10 ppm dithiopyr, treatment none (Control), 30 ppm PESA salt, 10 ppm GA3 or both, untreated 3.9): 2.8 cm
Root Length ([1]; 10 ppm dithiopyr, treatment none (Control), 30 ppm PESA salt, 10 ppm GA3 or both, untreated 9.5): 6.4 cm
Shoot Length ([1]; 30 ppm PESA salt, 0 ppm chlorsulfuron, untreated 4.8): 4.9 cm
Root Length ([1]; 30 ppm PESA salt, 0 ppm chlorsulfuron, untreated 11.6): 12.8 cm
Shoot Length ([1]; 30 ppm PESA salt, 0 ppm dithiopyr, untreated 4.0): 4.2 cm
Root Length ([1]; 30 ppm PESA salt, 0 ppm dithiopyr, untreated 9.5): 12.2 cm
Shoot Length ([1]; 30 ppm PESA salt, 0 ppm metolachlor, untreated 3.7): 3.7 cm
Root Length ([1]; 30 ppm PESA salt, 0 ppm metolachlor, untreated 9.3): 10.9 cm
Shoot Length ([1]; 30 ppm PESA salt, 0 ppm pendimethalin, untreated 3.4): 3.6 cm
Root Length ([1]; 30 ppm PESA salt, 0 ppm pendimethalin, untreated 8.5): 10.1 cm
Shoot Length ([1]; 30 ppm PESA salt, 0 ppm trifluralin, untreated 3.2): 3.7 cm
Root Length ([1]; 30 ppm PESA salt, 0 ppm trifluralin, untreated 9.2): 10.7 cm
Shoot Length ([1]; 30 ppm PESA salt, 1 ppm dithiopyr, untreated 4.0): 4.0 cm
Root Length ([1]; 30 ppm PESA salt, 1 ppm dithiopyr, untreated 9.5): 11.4 cm
Shoot Length ([1]; 30 ppm PESA salt, 1 ppm metolachlor, untreated 3.7): 3.9 cm
Root Length ([1]; 30 ppm PESA salt, 1 ppm metolachlor, untreated 9.3): 8.6 cm
Shoot Length ([1]; 30 ppm PESA salt, 1 ppm trifluralin, untreated 3.2): 3.6 cm
Root Length ([1]; 30 ppm PESA salt, 1 ppm trifluralin, untreated 9.2): 10.6 cm
Shoot Length ([1]; 30 ppm PESA salt, 10 ppm chlorsulfuron, untreated 4.8): 0.9 cm
Root Length ([1]; 30 ppm PESA salt, 10 ppm chlorsulfuron, untreated 11.6): 0.5 cm
Shoot Length ([1]; 30 ppm PESA salt, 10 ppm dithiopyr, untreated 4.0): 3.7 cm
Root Length ([1]; 30 ppm PESA salt, 10 ppm dithiopyr, untreated 9.5): 9.1 cm
Shoot Length ([1]; 30 ppm PESA salt, 10 ppm metolachlor, untreated 3.7): 0.9 cm
Root Length ([1]; 30 ppm PESA salt, 10 ppm metolachlor, untreated 9.3): 4.4 cm
Shoot Length ([1]; 30 ppm PESA salt, 10 ppm pendimethalin, untreated 3.4): 3.2 cm
Root Length ([1]; 30 ppm PESA salt, 10 ppm pendimethalin, untreated 8.5): 9.4 cm
Shoot Length ([1]; 30 ppm PESA salt, 10 ppm trifluralin, untreated 3.2): 2.9 cm
Root Length ([1]; 30 ppm PESA salt, 10 ppm trifluralin, untreated 9.2): 9.1 cm
Shoot Length ([1]; 30 ppm PESA salt, 100 ppm chlorsulfuron, untreated 4.8): 0.8 cm
Root Length ([1]; 30 ppm PESA salt, 100 ppm chlorsulfuron, untreated 11.6): 0.3 cm
Shoot Length ([1]; 30 ppm PESA salt, 100 ppm dithiopyr, untreated 4.0): 1.1 cm
Root Length ([1]; 30 ppm PESA salt, 100 ppm dithiopyr, untreated 9.5): 0.4 cm
Shoot Length ([1]; 30 ppm PESA salt, 100 ppm metolachlor, untreated 3.7): 0.6 cm
Root Length ([1]; 30 ppm PESA salt, 100 ppm metolachlor, untreated 9.3): 1.7 cm
Shoot Length ([1]; 30 ppm PESA salt, 100 ppm pendimethalin, untreated 3.4): 1.0 cm
Root Length ([1]; 30 ppm PESA salt, 100 ppm pendimethalin, untreated 8.5): 3.1 cm
Shoot Length ([1]; 30 ppm PESA salt, 100 ppm trifluralin, untreated 3.2): 2.4 cm
Root Length ([1]; 30 ppm PESA salt, 100 ppm trifluralin, untreated 9.2): 5.1 cm
Shoot Length ([1]; 30 ppm PESA salt, 500 ppm pendimethalin, untreated 3.4): 0.5 cm
Root Length ([1]; 30 ppm PESA salt, 500 ppm pendimethalin, untreated 8.5): 0.6 cm
protection of roots from herbicide ([1]; 30 ppm PESA with 10 ppm dithiopyr): protected the roots largely from the negative effects of dithiopyr
protection of roots from herbicide ([1]; 30 ppm PESA with 100 ppm trifluralin): largely protected the roots from the negative effects of trifluralin
Shoot Length ([1]; 50 ppm pendimethalin, treatment none (Control), 30 ppm PESA salt, 10 ppm GA3 or both, untreated 3.9): 1.1 cm
Root Length ([1]; 50 ppm pendimethalin, treatment none (Control), 30 ppm PESA salt, 10 ppm GA3 or both, untreated 9.7): 5.6 cm
root length greater than with pendimethalin alone ([1]; PESA and pendimethalin, on average): 20%
root length relative to pendimethalin alone ([1]; PESA salt added to pendimethalin (Table 4)): twice the length of those grown in pendimethalin alone
effect on root and shoot length ([1]; PESA salt in the absence of trifluralin): significant increase in both root and shoot length
protection of roots from herbicide ([1]; PESA salt with 10 ppm metolachlor): partially protected primary root length
protection of root length from herbicide ([1]; PESA salt with chlorsulfuron, rice): had no activity in combination with chlorsulfuron
effect on shoot length under herbicide ([1]; PESA salt with dithiopyr): did not significantly alter the negative effects of dithiopyr on shoot length
effect on shoot growth under herbicide ([1]; PESA salt with pendimethalin): did not overcome the negative effects of pendimethalin on shoot growth
effect on shoot length under herbicide ([1]; PESA salt with trifluralin): did not consistently overcome the negative effects of trifluralin on shoot length
root length increased by ([1]; addition of 30 ppm PESA to 100 ppm pendimethalin): 25%
Shoot Length ([1]; no dithiopyr (Control), treatment 30 ppm PESA salt, 10 ppm GA3 or both, untreated 3.9): 3.6 cm
Root Length ([1]; no dithiopyr (Control), treatment 30 ppm PESA salt, 10 ppm GA3 or both, untreated 9.5): 10.7 cm
Percent Emergence at 12 days after planting ([2]; Dimension (dithiopyr) 0.25 pints/acre, seed treatment none (Control), 1 g GA3 and/or 50 g PESA salt per 100 lbs of seed, untreated 72.1): 61.0%
Percent Emergence at 12 days after planting ([2]; Dimension (dithiopyr) 0.5 pints/acre, seed treatment none (Control), 1 g GA3 and/or 50 g PESA salt per 100 lbs of seed, untreated 72.1): 13.9%
protection of emergence from glyphosate ([2]; PESA seed treatment, soil treated with Roundup WeatherMax, at 90 μg/cm^2): could protect the rice seedlings from glyphosate
Percent Emergence at 12 days after planting ([2]; Prowl (pendimethalin) 0.25 pints/acre, seed treatment none (Control), 1 g GA3 and/or 50 g PESA salt per 100 lbs of seed, untreated 84.5): 79.0%
Percent Emergence at 12 days after planting ([2]; Prowl (pendimethalin) 0.5 pints/acre, seed treatment none (Control), 1 g GA3 and/or 50 g PESA salt per 100 lbs of seed, untreated 84.5): 80.7%
Percent Emergence at 12 days after planting ([2]; Prowl (pendimethalin) 2 pints/acre, seed treatment none (Control), 1 g GA3 and/or 50 g PESA salt per 100 lbs of seed, untreated 84.5): 61.0%
Percent Emergence at 12 days after planting ([2]; no Dimension (Control), seed treatment 1 g GA3 and/or 50 g PESA salt per 100 lbs of seed, untreated 72.1): 77.2%
Percent Emergence at 12 days after planting ([2]; no Prowl (Control), seed treatment 1 g GA3 and/or 50 g PESA salt per 100 lbs of seed, untreated 84.5): 86.1%
Percent Emergence at 9 days after planting ([2]; seed treatment 25 g PESA salt per 100 kg of seed, glyphosate 0 μg/cm2): 80%
Percent Emergence at 9 days after planting ([2]; seed treatment 25 g PESA salt per 100 kg of seed, glyphosate 23 μg/cm2): 84%
Percent Emergence at 9 days after planting ([2]; seed treatment 25 g PESA salt per 100 kg of seed, glyphosate 90 μg/cm2): 28%
Percent Emergence at 9 days after planting ([2]; seed treatment 50 g PESA salt per 100 kg of seed, glyphosate 0 μg/cm2): 92%
Percent Emergence at 9 days after planting ([2]; seed treatment 50 g PESA salt per 100 kg of seed, glyphosate 23 μg/cm2): 78%
Percent Emergence at 9 days after planting ([2]; seed treatment 50 g PESA salt per 100 kg of seed, glyphosate 90 μg/cm2): 38%
protection of emergence from pendimethalin ([2]; seed treatment, soil sprayed with Prowl H2O, particularly at 2 pints/acre): could protect the rice seedlings from pendimethalin
protection of emergence from dithiopyr ([2]; seed treatment, soil treated with Dimension, particularly at 0.25 and 0.5 pints/acre): could protect the rice seedlings from dithiopyr
protection of root growth by seed treatment ([3]; PESA salt seed treatment, trifluralin 50 ppm): significant protection against intermediate rates of trifluralin (50 ppm)
Root Length ([3]; seed treatment 10 g PESA salt/100 lbs of seed, 0 ppm trifluralin): 10.7 cm
Root Length ([3]; seed treatment 10 g PESA salt/100 lbs of seed, 50 ppm trifluralin): 4.6 cm
Root Length ([3]; seed treatment 10 g PESA salt/100 lbs of seed, 100 ppm trifluralin): 0.3 cm
Root Length ([3]; seed treatment 25 g PESA salt/100 lbs of seed, 0 ppm trifluralin): 10.1 cm
Root Length ([3]; seed treatment 25 g PESA salt/100 lbs of seed, 50 ppm trifluralin): 5.2 cm
Root Length ([3]; seed treatment 25 g PESA salt/100 lbs of seed, 100 ppm trifluralin): 0.3 cm
Root Length ([3]; seed treatment 50 g PESA salt/100 lbs of seed, 0 ppm trifluralin): 10.3 cm
Root Length ([3]; seed treatment 50 g PESA salt/100 lbs of seed, 50 ppm trifluralin): 6.0 cm
Root Length ([3]; seed treatment 50 g PESA salt/100 lbs of seed, 100 ppm trifluralin): 0.3 cm
Shoot Length ([4]; 0 ppm chlorsulfuron): 5.2 cm
Root Length ([4]; 0 ppm chlorsulfuron): 14.0 cm
Shoot Length ([4]; 1 ppm chlorsulfuron): 2.7 cm
Root Length ([4]; 1 ppm chlorsulfuron): 2.1 cm
Shoot Length ([4]; 10 ppm chlorsulfuron): 1.7 cm
Root Length ([4]; 10 ppm chlorsulfuron): 2.0 cm
Shoot Length ([4]; 100 ppm chlorsulfuron): 1.7 cm
Root Length ([4]; 100 ppm chlorsulfuron): 2.0 cm
protection of root length from herbicide ([4]; PESA salt with chlorsulfuron): unable to overcome the negative effects of chlorsulfuron on root length
